Some results are limits rather than exact numbers.

Our source for the IC50 and inhibition values is publication PMC10641818, “Development of First-in-Class Dual Sirt2/HDAC6 Inhibitors as Molecular Tools for Dual Inhibition of Tubulin Deacetylation” (Journal of Medicinal Chemistry, 2023).

Holding throughout (format): biochemical
The target of one assay is T1, HDAC2 (Homo sapiens, UniProt Q92769).
T1 construct: purchased BPS Bioscience 50052
Briefly: HDAC2 in vitro deacetylation assay (ZMAL). Particulars: mean ± SD.

A further assay has as its target HDAC8 (Homo sapiens, UniProt Q9BY41). Description: HDAC8 in vitro deacylation assay (ZMTFAL).
A further assay has as its target HDAC5 (Homo sapiens, UniProt Q9UQL6). Briefly: HDAC5 continuous fluorescence deacylation assay.
A further assay deals with T2, Sirt5 (Homo sapiens, UniProt Q9NXA8).
T2 sequence (Q9NXA8 37-310): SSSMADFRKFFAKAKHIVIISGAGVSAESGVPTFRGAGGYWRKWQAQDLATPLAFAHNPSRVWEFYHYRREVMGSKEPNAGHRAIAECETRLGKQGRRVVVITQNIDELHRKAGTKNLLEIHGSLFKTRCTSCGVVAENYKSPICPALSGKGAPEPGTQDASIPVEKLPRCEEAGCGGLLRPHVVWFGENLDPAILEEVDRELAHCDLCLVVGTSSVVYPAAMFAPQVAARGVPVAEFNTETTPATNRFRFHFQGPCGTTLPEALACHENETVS
Briefly: Sirt5 in vitro deacylation HPLC assay.

For another assay, the target named is Sirt2 (demyristoylation) (Homo sapiens, UniProt Q8IXJ6). Briefly: Continuous Sirt2 demyristoylation assay (myristoylated peptide substrate). The settings on record: peptide-based myristoylated substrate, triplicate; read-out: Sirt2-mediated demyristoylation IC50. The procedure:
As a second method to confirm the inhibition of Sirt2-mediated demyristoylation by 33, we used a continuous Sirt2 demyristoylation assay as reported by Zessin et al.[48] In brief, this assay was performed in a black 384-well fluorescence plate in a total volume of 40 μL of Sirt assay buffer (20 mM Tris-HCl, 150 mM NaCl, 5 mg/mL MgCl2, 2 mg/mL BSA, pH 7.8). Dilution series of the inhibitor was done in DMSO. A total of 2 μL of the inhibitor dilutions were incubated with 14 μL of the peptide substrate, referred to as F4 in Zessin et al.[48] (final concentration 40 nM) and 14 μL of Sirt2 solution (final concentration 1 nM) for 5 min at room temperature. In addition to the inhibitor-containing samples, a sample without inhibitors was measured as a positive control, and a sample without enzymes was measured as a negative control. The DMSO concentration was set to 5% (v/v). The reaction was started by the addition of 10 μL of NAD^+ (final concentration 500 μM). The product formation was monitored by the change in fluorescence intensity, and the reaction rate represented the activity. Fluorescence readout was performed with a BMG Fluostar Omega plate reader at following wavelengths: Excitation wavelength: λEx = 485 ± 10 nm, emission wavelength: λEm = 530 ± 10 nm. Inhibition was calculated using the following equation: [drawing 1] […]

Another assay addresses Sirt6 (Homo sapiens, UniProt Q8N6T7). Description: Sirt6 in vitro deacylation HPLC assay.
The next assay deals with T3, HDAC7 (Homo sapiens, UniProt Q8WUI4).
T3 sequence (Q8WUI4 1-952): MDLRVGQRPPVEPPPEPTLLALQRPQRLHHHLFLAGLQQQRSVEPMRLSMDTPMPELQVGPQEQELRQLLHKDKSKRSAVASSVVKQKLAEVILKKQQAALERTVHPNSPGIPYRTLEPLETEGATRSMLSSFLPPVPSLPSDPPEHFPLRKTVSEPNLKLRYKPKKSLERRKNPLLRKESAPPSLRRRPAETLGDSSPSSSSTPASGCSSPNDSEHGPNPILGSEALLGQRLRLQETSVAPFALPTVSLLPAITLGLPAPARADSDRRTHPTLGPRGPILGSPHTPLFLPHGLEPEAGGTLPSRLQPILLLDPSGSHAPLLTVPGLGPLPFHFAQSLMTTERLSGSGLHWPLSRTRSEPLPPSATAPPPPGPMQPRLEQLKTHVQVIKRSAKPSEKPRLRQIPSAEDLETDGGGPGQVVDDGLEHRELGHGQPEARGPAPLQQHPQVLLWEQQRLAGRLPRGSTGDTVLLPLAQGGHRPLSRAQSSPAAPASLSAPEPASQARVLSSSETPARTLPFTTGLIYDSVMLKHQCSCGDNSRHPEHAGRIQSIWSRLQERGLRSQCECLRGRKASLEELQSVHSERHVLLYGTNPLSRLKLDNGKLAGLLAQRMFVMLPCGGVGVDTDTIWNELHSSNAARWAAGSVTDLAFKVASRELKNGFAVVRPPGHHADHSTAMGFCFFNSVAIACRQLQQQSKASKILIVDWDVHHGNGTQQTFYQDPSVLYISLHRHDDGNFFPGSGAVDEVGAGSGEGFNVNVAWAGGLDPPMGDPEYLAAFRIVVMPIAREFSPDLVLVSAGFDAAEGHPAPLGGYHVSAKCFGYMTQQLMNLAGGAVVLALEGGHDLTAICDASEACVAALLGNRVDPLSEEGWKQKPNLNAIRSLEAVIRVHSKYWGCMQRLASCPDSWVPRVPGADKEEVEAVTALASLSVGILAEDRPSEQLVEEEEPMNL
Description: HDAC7 continuous fluorescence deacylation assay.

Sirt6, sequence (Q8N6T7 whole entry, species assumed): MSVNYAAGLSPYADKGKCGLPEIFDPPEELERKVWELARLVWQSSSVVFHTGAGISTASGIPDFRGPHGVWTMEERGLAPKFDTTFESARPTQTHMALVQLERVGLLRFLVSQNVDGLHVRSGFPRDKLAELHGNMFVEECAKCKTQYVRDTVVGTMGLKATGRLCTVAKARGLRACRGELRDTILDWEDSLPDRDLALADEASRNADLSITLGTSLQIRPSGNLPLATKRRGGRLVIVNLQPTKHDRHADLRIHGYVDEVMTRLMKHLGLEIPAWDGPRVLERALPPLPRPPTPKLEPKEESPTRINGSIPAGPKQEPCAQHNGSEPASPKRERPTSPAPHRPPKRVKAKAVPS
HDAC5, sequence (Q9UQL6 whole entry, species assumed): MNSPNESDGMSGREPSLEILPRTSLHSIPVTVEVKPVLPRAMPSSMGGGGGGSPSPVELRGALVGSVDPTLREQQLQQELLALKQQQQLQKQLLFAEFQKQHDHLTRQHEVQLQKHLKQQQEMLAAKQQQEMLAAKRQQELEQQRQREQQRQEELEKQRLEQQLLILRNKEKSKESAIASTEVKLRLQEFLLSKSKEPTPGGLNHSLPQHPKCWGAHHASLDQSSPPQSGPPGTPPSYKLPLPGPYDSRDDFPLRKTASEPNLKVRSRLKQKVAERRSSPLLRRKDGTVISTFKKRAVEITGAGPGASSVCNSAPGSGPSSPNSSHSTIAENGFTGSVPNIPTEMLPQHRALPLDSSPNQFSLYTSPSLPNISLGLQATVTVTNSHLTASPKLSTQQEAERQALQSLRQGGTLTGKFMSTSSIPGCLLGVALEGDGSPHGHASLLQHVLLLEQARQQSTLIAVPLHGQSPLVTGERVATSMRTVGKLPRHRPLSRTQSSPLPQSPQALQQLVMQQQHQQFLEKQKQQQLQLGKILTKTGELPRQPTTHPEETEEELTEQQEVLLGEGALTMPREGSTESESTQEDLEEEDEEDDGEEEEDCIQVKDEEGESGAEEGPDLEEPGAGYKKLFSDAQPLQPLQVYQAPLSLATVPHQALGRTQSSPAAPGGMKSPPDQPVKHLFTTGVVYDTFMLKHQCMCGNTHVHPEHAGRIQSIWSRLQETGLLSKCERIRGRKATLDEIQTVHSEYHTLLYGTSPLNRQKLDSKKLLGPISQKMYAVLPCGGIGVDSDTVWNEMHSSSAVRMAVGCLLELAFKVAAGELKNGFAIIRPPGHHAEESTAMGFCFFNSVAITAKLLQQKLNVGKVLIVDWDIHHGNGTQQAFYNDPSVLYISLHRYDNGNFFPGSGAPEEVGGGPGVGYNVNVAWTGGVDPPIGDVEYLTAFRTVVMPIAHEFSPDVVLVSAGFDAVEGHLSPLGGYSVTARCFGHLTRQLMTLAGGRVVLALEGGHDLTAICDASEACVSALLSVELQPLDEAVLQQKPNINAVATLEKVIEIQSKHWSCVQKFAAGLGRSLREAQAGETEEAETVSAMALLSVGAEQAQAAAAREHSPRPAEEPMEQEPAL
T1 sequence (Q92769 whole entry): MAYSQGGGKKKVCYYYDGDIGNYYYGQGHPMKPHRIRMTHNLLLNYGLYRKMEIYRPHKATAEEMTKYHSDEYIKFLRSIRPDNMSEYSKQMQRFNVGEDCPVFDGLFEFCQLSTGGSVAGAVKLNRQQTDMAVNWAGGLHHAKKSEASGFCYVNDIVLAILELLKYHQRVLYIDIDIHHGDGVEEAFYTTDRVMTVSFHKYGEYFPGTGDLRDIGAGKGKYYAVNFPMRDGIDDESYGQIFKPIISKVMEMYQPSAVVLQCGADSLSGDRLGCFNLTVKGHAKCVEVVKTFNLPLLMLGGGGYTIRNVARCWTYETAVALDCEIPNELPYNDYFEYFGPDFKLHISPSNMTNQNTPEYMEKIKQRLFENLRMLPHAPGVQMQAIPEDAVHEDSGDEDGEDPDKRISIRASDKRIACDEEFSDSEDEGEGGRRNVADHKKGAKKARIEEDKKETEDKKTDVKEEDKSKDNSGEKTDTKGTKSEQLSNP
HDAC8, sequence (Q9BY41 whole entry, species assumed): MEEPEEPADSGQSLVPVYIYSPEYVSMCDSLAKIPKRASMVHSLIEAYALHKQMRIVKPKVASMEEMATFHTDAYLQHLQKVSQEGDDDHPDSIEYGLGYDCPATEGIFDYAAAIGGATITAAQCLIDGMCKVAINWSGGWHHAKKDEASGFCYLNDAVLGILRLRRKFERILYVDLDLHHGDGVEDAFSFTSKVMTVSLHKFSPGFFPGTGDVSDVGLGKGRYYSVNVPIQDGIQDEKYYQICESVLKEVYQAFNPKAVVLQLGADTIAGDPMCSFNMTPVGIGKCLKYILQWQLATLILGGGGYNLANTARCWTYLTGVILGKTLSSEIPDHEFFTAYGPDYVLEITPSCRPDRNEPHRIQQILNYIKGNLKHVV
Sirt2 (demyristoylation), sequence (Q8IXJ6 whole entry): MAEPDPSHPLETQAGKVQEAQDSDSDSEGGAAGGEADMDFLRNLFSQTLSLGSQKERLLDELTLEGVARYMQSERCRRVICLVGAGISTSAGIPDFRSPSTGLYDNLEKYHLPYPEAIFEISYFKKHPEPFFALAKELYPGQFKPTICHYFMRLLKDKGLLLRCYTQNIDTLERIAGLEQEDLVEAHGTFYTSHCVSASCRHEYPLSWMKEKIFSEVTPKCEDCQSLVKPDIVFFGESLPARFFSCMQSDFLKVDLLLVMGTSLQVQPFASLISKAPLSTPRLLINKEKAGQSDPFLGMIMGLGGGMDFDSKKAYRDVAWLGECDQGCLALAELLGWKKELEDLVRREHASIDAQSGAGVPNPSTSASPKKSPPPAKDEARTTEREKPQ

With `CCCCN(Cc1ccc(C(=O)NO)cc1)C(=O)CCCCn1cc(COc2cccc(Cc3cnc(NC(=O)CSc4nc(C)cc(C)n4)s3)c2)nn1` [Compound 33, 4-((N-Butyl-5-(4-((3-((2-(2-((4,6-dimethylpyrimidin-2-yl)thio)acetamido)thiazol-5-yl)methyl)phenoxy)methyl)-1H-1,2,3-triazol-1-yl)pentanamido)methyl)-N-hydroxybenzamide], the IC50 against HDAC2 is 6 ± 0.2 µM; against HDAC8, 2.94 ± 0.45 µM; against HDAC5, over 6 µM; on Sirt5, over 500 µM; on Sirt2 (demyristoylation), 0.88 ± 0.09 µM; at Sirt6 it was over 500 µM. Also, at HDAC7, the IC50 is over 6 µM. Also, the inhibition at 6 µM amounted to 18% on HDAC5 (@ 6 µM, read-out: HDAC5 percentual inhibition) and 29% on HDAC7 (@ 6 µM, read-out: HDAC7 percentual inhibition). For the same compound, the inhibition at 20 µM is 57% on HDAC5 (@ 20 μM, read-out: HDAC5 percentual inhibition) and 57% on HDAC7 (@ 20 μM, read-out: HDAC7 percentual inhibition). Moreover, the inhibition at 200 µM on Sirt5 (@ 200 µM, read-out: Sirt5 percentual inhibition) is -2%; on Sirt6 (@ 200 µM, read-out: Sirt6 percentual inhibition) it was 0%. For the same compound, the inhibition at 500 µM at Sirt5 (@ 500 µM, read-out: Sirt5 percentual inhibition) was -1%; on Sirt6 (@ 500 µM, read-out: Sirt6 percentual inhibition), 10%.

As a reminder, the IC50 is the concentration that inhibits the measured activity by half. As usually defined, the inhibition is the drop in the measured response relative to a control, in per cent.
